What was measured:
Test in all cases: Large panel kinase profiling
Format in all cases: biochemical
Settings in all cases: 1 μM test article, 1 mM ATP
CDK2/A2 = biological target: T1, CDK2/A2 (Homo sapiens, UniProt P24941)
T1 construct: AssayQuant Technologies, Inc. (ran the panel)
Method in brief: (§1)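 Fluorescence intensity (Ex 360 nm, Em 485 nm) was monitored continuously, once per minute, in PhosphoSens CSox-Sensor kinase reactions held at 30° C. Compound was present at 1 μM and ATP at 1 mM.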

LATS2 = biological target: T2, LATS2 (Homo sapiens, UniProt Q9NRM7)
T2 sequence (Q9NRM7 1-1088): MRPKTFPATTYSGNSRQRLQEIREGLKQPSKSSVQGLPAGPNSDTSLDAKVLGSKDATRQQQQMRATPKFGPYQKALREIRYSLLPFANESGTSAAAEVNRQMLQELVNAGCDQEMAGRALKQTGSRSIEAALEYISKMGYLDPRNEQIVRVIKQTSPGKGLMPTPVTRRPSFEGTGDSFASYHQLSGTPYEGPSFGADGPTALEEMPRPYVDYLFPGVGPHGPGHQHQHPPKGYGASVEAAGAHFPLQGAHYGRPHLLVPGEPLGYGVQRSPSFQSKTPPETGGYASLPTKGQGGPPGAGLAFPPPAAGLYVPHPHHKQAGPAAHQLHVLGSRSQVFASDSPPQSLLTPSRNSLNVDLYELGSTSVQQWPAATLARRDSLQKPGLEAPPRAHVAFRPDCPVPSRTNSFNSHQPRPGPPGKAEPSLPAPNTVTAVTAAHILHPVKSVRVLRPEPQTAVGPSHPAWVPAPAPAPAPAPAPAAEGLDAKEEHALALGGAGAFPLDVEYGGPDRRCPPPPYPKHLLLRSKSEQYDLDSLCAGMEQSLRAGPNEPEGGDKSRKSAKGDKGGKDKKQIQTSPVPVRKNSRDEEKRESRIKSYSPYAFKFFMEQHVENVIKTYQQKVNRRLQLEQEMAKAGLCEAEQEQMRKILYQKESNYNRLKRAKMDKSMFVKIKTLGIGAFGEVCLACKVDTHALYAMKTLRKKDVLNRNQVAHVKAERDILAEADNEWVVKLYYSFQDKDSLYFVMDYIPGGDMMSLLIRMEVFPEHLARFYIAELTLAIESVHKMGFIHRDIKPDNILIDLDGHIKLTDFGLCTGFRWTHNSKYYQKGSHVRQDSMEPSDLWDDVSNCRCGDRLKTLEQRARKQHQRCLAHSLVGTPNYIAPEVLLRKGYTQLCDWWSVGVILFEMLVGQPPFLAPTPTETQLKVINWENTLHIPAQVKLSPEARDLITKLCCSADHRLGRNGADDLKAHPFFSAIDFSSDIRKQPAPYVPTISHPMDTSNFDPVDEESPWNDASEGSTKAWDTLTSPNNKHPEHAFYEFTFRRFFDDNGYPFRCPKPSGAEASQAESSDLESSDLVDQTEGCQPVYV
Method in brief: as §1

ROS = ROS (Homo sapiens, UniProt P08922)
Chain of ROS (P08922 28-2347, species assumed): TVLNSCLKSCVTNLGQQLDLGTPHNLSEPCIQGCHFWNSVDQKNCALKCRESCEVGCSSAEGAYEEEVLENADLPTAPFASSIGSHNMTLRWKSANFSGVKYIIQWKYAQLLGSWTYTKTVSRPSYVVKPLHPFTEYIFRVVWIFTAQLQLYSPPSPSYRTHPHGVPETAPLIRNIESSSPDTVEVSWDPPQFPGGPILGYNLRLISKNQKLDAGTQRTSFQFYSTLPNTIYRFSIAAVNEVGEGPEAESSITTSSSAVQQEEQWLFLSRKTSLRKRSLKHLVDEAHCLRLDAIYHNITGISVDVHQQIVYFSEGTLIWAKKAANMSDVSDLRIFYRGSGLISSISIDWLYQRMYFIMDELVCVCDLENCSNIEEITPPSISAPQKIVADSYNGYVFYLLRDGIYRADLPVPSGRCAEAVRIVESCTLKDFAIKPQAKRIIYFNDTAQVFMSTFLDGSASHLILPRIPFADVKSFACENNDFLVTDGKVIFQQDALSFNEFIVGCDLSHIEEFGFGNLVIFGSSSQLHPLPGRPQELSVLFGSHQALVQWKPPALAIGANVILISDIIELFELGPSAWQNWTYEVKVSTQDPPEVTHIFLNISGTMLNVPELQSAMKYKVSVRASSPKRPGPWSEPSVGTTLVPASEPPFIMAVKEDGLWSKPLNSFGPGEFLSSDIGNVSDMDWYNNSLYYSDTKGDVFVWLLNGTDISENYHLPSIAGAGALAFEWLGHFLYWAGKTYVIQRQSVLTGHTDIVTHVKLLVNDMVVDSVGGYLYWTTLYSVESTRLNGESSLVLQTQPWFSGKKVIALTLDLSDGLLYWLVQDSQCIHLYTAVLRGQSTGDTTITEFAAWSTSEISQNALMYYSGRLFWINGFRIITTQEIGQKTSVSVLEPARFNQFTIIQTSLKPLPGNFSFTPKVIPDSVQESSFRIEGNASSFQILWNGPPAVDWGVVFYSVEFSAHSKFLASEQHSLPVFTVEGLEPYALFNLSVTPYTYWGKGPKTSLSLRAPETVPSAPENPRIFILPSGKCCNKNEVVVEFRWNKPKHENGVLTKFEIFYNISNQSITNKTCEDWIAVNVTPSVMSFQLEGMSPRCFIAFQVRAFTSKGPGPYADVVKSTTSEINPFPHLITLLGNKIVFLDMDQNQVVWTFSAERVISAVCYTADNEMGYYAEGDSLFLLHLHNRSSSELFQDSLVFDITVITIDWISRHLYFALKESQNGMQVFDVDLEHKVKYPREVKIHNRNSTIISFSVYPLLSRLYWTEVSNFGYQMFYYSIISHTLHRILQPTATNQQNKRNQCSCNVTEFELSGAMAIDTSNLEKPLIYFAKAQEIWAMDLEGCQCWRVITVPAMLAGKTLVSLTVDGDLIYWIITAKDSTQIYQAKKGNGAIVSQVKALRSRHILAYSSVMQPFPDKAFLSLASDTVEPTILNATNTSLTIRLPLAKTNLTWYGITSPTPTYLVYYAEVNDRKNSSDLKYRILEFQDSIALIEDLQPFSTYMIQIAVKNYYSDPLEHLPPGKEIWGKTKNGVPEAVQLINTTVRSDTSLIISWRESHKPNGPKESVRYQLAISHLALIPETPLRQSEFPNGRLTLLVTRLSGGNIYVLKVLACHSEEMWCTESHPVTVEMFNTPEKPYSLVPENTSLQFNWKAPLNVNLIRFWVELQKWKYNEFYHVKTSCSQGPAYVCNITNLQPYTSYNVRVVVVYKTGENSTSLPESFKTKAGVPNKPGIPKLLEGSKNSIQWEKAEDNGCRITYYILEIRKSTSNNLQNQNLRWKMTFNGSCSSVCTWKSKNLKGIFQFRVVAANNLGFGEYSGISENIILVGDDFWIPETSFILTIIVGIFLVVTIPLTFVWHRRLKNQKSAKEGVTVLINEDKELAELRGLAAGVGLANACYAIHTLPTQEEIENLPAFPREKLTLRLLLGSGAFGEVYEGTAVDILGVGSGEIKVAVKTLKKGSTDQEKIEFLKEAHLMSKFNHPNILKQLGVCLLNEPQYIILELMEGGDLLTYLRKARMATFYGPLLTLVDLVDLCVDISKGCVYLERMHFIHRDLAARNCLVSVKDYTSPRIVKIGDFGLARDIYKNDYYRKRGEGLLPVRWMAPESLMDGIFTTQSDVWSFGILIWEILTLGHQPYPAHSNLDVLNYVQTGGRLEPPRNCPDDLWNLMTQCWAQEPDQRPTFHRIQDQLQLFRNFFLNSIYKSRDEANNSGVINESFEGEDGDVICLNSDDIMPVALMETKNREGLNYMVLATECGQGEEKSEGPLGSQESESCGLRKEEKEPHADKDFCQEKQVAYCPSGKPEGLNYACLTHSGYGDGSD
Method in brief: as §1

MST1R/RON = biological target: T3, MST1R/RON (Homo sapiens, UniProt Q04912)
T3 construct: AssayQuant Technologies, Inc. (assay service)
T3 sequence (Q04912 25-1400): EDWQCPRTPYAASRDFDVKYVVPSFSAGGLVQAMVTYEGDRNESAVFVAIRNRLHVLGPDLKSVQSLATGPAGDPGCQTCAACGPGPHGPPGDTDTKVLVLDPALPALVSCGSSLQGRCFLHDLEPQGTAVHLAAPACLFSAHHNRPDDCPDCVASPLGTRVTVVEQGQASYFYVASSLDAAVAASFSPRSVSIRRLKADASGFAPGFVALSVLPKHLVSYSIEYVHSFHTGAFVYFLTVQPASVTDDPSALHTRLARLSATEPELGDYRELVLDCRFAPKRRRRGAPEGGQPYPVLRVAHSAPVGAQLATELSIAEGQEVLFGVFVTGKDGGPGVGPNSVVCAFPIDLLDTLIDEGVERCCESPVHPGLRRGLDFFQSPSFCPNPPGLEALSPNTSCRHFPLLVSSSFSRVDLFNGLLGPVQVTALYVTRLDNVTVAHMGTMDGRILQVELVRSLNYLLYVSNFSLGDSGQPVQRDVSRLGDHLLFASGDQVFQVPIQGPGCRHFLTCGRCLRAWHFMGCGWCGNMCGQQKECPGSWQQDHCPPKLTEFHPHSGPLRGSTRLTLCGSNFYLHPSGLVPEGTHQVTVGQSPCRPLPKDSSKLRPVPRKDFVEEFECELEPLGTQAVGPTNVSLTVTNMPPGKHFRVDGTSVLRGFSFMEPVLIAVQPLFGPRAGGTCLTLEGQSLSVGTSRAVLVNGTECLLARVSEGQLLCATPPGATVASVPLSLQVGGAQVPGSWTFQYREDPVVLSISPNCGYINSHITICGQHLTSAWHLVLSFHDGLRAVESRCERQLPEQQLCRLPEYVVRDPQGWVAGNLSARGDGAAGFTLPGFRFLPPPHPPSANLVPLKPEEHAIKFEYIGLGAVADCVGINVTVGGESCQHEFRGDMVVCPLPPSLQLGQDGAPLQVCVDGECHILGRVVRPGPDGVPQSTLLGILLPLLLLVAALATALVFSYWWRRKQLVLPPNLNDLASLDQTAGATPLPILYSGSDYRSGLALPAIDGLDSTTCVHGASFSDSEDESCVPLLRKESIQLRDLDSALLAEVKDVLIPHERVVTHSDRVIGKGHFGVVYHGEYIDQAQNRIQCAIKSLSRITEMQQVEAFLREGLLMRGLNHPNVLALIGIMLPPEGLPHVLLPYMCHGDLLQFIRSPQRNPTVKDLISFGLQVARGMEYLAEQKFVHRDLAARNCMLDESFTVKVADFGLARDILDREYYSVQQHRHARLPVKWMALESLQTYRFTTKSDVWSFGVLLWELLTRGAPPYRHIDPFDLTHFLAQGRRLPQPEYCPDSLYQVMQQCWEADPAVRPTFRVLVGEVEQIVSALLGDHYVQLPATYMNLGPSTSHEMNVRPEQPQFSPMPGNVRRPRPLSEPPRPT
Method in brief: as §1

INSRR = INSRR (Homo sapiens, UniProt P14616)
Chain of INSRR (P14616 27-1297, species assumed): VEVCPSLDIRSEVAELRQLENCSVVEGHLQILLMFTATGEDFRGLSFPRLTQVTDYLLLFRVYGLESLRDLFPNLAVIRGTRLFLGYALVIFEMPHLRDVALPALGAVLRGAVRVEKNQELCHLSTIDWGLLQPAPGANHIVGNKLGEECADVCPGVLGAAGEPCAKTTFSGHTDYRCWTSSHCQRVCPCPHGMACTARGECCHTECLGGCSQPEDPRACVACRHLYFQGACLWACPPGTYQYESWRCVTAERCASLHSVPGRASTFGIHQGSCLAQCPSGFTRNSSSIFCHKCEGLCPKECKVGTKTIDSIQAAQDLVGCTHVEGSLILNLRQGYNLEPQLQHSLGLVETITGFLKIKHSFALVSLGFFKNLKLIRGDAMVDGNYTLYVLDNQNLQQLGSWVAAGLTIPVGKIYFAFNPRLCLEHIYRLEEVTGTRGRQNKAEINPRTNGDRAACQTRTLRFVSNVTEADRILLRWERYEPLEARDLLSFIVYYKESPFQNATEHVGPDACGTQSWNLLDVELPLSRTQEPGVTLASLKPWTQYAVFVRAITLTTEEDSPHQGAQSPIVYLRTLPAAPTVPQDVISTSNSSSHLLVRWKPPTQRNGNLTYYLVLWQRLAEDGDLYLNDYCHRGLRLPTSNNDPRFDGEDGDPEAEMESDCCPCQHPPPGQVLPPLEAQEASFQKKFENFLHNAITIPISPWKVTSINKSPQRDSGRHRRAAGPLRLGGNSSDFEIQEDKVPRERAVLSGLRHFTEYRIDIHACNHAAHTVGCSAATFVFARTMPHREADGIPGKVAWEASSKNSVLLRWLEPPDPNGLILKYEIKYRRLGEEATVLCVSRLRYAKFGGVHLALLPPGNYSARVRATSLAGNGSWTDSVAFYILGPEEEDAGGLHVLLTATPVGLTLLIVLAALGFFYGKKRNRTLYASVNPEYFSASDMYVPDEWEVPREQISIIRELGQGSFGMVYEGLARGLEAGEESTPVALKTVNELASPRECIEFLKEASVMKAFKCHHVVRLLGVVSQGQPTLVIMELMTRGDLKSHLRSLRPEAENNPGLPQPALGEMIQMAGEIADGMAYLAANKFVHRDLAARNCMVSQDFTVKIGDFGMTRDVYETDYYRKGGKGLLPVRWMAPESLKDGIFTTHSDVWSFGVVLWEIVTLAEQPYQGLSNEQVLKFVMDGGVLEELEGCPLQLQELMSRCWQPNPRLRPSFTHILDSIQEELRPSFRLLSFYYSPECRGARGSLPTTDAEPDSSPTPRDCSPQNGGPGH
Method in brief: as §1

BRSK1 = biological target: T4, BRSK1 (Homo sapiens, UniProt Q8TDC3)
T4 sequence (Q8TDC3 1-778): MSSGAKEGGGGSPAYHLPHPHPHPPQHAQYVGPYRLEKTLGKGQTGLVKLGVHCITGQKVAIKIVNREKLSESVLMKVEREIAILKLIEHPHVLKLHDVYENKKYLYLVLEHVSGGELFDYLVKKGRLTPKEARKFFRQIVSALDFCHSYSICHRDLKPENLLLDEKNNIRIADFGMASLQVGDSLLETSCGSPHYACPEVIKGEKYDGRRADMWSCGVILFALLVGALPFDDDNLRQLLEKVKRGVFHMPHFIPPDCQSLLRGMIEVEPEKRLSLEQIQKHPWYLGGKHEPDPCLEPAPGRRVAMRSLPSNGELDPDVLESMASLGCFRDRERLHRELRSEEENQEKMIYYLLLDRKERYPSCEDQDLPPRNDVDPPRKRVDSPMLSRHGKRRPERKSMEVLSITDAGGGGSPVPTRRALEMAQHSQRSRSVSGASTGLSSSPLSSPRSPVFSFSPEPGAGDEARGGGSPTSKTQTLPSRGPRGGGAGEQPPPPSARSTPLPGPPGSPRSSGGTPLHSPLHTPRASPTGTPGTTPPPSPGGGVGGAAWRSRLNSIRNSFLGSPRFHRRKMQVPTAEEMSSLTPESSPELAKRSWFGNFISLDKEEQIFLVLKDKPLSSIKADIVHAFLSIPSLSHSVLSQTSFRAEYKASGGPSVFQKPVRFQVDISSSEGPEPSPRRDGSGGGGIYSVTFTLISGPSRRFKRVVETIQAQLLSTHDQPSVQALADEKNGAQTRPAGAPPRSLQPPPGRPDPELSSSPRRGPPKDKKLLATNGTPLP
Method in brief: as §1

SMILES	inhibition at 1 µM (CDK2/A2) [%]	inhibition at 1 µM (LATS2) [%]	inhibition at 1 µM (ROS) [%]	inhibition at 1 µM (MST1R/RON) [%]	inhibition at 1 µM (INSRR) [%]	inhibition at 1 µM (BRSK1) [%]
C=CC(=O)N1CCCC(c2c(F)cc(C(N)=O)c3[nH]c4c(c23)CCCCC4)C1 (single isomer, unassigned) [Compound 5-6]	-6.3	6.3	-35.7	-2.4	10.7	-30.9
C=CC(=O)N1CCC[C@@H](c2c(F)cc(C(N)=O)c3[nH]c4c(c23)CC2(CC4)CC2)C1 [Compound 6-2, (S)-5-(1-acryloylpiperidin-3-yl)-6-fluoro-1,2,4,9-tetrahydrospiro[carbazole-3,1′-cyclopropane]-8-carboxamide]	5.6	1.5	-3.6	-0.6	-54.1	-13
C=CC(=O)N1CCC[C@@H](c2c(F)cc(C(N)=O)c3[nH]c4c(c23)CCC4)C1 [Compound 10-2, (S)-8-(1-acryloylpiperidin-3-yl)-7-fluoro-1,2,3,4-tetrahydrocyclo-penta[b]indole-5-carboxamide]	2.3	-0.7	-22	-2.5	-5.7	10.1

— patent US20220009920A1 (GB005, Inc., priority 2020, published 2022)
